In patent US10414150B2, “Active-energy-ray-curable composition, composition stored container, two-dimensional or three-dimensional image forming apparatus, method for forming two-dimensional or three-dimensional image, and cured product” (Ricoh Company, Ltd., priority 2015, dated 2019):
Read-outs that look alike come from different tables or passages of the source.

Key:
[1] = negative = satisfies at least one of (1) LLNA SI less than 3, (2) MSDS, (3) reference; cited from earlier work
[2] = test method: maximization method; cited from earlier work
[3] = cited from earlier work
Female mice = assay: Skin sensitization test by LLNA (Local Lymph Node Assay) method, SI value; format: in vivo; conditions: test substance 50.0 w/v % in acetone:olive oil 4:1, 25 μL/auricle, once/day × 3 days, SI less than 3 = negative
Procedure: In the (1), it is judged that a compound is negative in skin sensitization when the SI value of the compound is less than 3, as described in the journal of “Function and Materials”, September, 2005, volume 25, No. 9, on page 55. The lower the SI value is, the lower skin sensitization is.
The SI value was measured by a skin sensitization test by LLNA (Local Lymph Node Assay) method as described below.
α-Hexyl cinnamaldehyde (HCA, available from Wako Pure Chemical Industries, Ltd.) was used as the positive control substance.
A mixture liquid obtained by mixing acetone (available from Wako Pure Chemical Industries, Ltd.) and an olive oil (available from Fujimi Pharmaceutical Co., Ltd.) at a volume ratio (acetone:olive oil) of 4:1 was used as the medium. […]
Based on the body weights of the animals measured two days before sensitization was started, the animals were divided into two groups (4 mice/group) in a manner that the body weight of each individual would be within ±20% of the average body weight of the whole group according to a body weight stratified random sampling method. […]
About twenty four hours after the BrdU administration, the animals were euthanized, and the auricular lymph nodes were extracted. […] The average value and standard error of the weight of the auricular lymph nodes per group were calculated. […]

[4] = test method: OECD Test Guideline 406; cited from earlier work

CCC(Cc1ccc(C)cc1)(C(=O)c1ccc(N2CCOCC2)cc1)N(C)C (stereo not shown) [2-dimethylamino-2-(4-methylbenzyl)-1-(4-morpholin-4-yl-phenyl)butan-1-one]
Skin sensitization [1]: negative

C=C(C)C(=O)OC(C)(C)C [Example A2, t-butyl methacrylate]
Skin sensitization evaluated according to the reference [2]: negative | Vapor pressure ([3]; 18.5° C.): 700 Pa | Skin sensitization [1]: negative

C=C(C)C(=O)OCCCCC [Example A3, n-Pentyl methacrylate]
Skin sensitization evaluated according to the reference [2]: negative | Vapor pressure ([3]; 25° C.): 69.1 Pa | Skin sensitization [1]: negative

C=C(C)C(=O)OCCCCCC [Example A4, n-Hexyl methacrylate]
Skin sensitization evaluated according to the reference [2]: negative | Vapor pressure ([3]; 20° C.): 34.7 Pa | Skin sensitization [1]: negative

C=C(C)C(=O)OCC(CO)OC(=O)C(=C)C (stereo not shown) [Example B2, Glycerol dimethacrylate]
Skin sensitization [1]: negative | SI value (Stimulation Index) measured by LLNA test (Female mice): 1.2

C=C(C)C(=O)OCC(CC)(COC(=O)C(=C)C)COC(=O)C(=C)C [Example B6, Trimethylolpropane trimethacrylate]
SI value (Stimulation Index) measured by LLNA test (Female mice): 1.9

O=C(c1ccccc1)C1(O)CCCCC1 [Example C1, 1-Hydroxy-cyclohexyl phenyl ketone]
Skin sensitization evaluated according to the MSDS [4]: nothing | Skin sensitization [1]: negative

CCC(Cc1ccc(C)cc1)(C(=O)c1ccc(N2CCOCC2)cc1)N(C)C (stereo not shown) [Example C2, 2-Dimethylamino-2-(4-methylbenzyl)-1-(4-morpholin-4-yl-phenyl)butan-1-one]
Skin sensitization evaluated according to the MSDS [4]: nothing

CSc1ccc(C(=O)C(C)(C)N2CCOCC2)cc1 [Example C3, 2-[4-(Methylthio)benzoyl]-2-(4-morpholinyl)propane]
Skin sensitization evaluated according to the MSDS [4]: nothing

C=CC(=O)OCc1ccccc1 [benzyl acrylate, reference compound]
Vapor pressure ([3]; 25° C.): 9.7 Pa | Skin sensitization [1]: positive

Caprolactone-modified dipentaerythritolhexaacrylate [Example B5]
Skin sensitization [1]: negative

polyethylene glycol dimethacrylate
Skin sensitization [1]: negative

tricyclodecane dimethanol dimethacrylate
Skin sensitization [1]: negative
